System: GL261 glioblastoma cells
Experiment: Colony survival measurement, GL261 glioblastoma cells
Assay type: cell-based, murine
Experimental: GL261 glioblastoma cells were incubated with different radioactivity concentrations of ^225Ac-DOTA dendrimer; cells were plated for colony survival measurement.
Cells, plated at 500,000 cells per well, were plated in 6-well plates and were allowed to adhere overnight before being incubated with varying concentrations of radioactivity (4.63, 9.25, 18.5, 37, 74 kBq/mL) at pH 7.4 for a duration of 6 hours. In case of the combination runs with temozolomide (TMZ), the free drug incubation at respective concentrations, was performed simultaneously with the radioactivity for a duration of 6 hours. […] Once cell colonies were observed (approximately 6 weeks for the cancer cells and approximately 3 weeks for the macrophages), the media was removed, dishes were washed with water, and the colonies were fixed and stained using 6% (w/v) glutaraldehyde and 0.05% (w/v) Crystal violet, respectively, following which they were counted using a colony counter pen. The number of colonies counted for each of the treatment groups was then normalized by the number of colonies from the control group to obtain the survival fraction, while accounting for the plating efficiency. The same procedure was used to obtain the survival fractions for free chemotherapeutic treatment, replacing the radioactivity concentrations with free chemotherapeutic concentration while incubating the cells. […]

In the case of `O=C([O-])CN1CCN(CC(=O)[O-])CCN(CC(=O)[O-])CCN(CC(=O)[O-])CC1.[225Ac+3]` [^225Ac-DOTA], the “colony survival fraction of GL261 cells versus resting and activated BV2 macrophages” value (FIG. 8 left) is reported as “significantly lower” and the “GL261 colony survival fraction in the presence of TMZ versus without TMZ” value (TMZ incubated simultaneously for 6 hours, at 2.1-3.7 times less than its IC50, FIG. 10 left, FIG. 12) is reported as “lower”.

— patent US20250340701A1, “DENDRIMER-DELIVERED ALPHA-PARTICLE RADIOTHERAPY FOR TREATMENT OF GLIOBLASTOMA AND OTHER CANCERS IN THE BRAIN” (priority 2022, published 2025)
